Common to all, as to experiment: DTP human tumour cell line panel, 48 h
Experiment [1] deals with TK-10.
Experiment [2] concerns SR.
The subject of experiment [3] is CCRF-CEM.
Experiment [4] concerns SF-295.
Experiment [5] relates to NCI-H226.
Experiment [6] relates to OVCAR-4.
Experiment [7] has as its system UACC-257.
Experiment [8] concerns SW-620.
Experiment [9] deals with KM12.
Experiment [10] concerns HCT-116.
Experiment [11] relates to PC-3.
For experiment [12], the system named is SF-268.
Experiment [13] has as its system MOLT-4.
Experiment [14] deals with DU-145.
Experiment [15] has as its system SK-MEL-5.
In experiment [16] the test system is SF-539.

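All cell lines were grown in 96-well plates and treated with compound for 48 hours. The concentration for 50% growth inhibition is given as GI50.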 The source made the active and inactive calls. Cut-off read from the data, not from the text of the source: active = GI50 up to about 1.1 µM and inactive = higher.

For the molecule `CCCCCCCCCCCCCCCCNc1nc(=O)n(C2OC(C)C(O)C2O)cc1F` (centres undefined), the GI50 was 16.8 µM (inactive) in experiment [1]; 23.9 µM (inactive) in experiment [2]; 16.3 µM (inactive) in experiment [3]; 20.8 µM (inactive) in experiment [4]; 21 µM (inactive) in [5]; 22.1 µM (inactive) in experiment [6]. For the same molecule, the GI50 is 20.5 µM (inactive) in experiment [7]; 19.9 µM (inactive) in [8]; 17.4 µM (inactive) in [9]; 18.4 µM (inactive) in [10]; 13.2 µM (inactive) in experiment [11]; 20 µM (inactive) in [12]. In addition, the GI50 in experiment [13] is 20.2 µM (inactive); in [14], 19.5 µM (inactive); in experiment [15], 18.5 µM (inactive); in experiment [16] it was 18.2 µM (inactive).

Turning to `CCN(CC)c1ccc(C2NC(=O)c3ccccc3N2)cc1` (centres undefined), the GI50 is > 100 µM (inactive) in experiment [1]; 0.557 µM (active) in [2]; 0.641 µM (active) in [3]; 3.01 µM (inactive) in experiment [4]; 2.98 µM (inactive) in experiment [5]; > 100 µM (inactive) in experiment [6]. Moreover, the GI50 was > 100 µM (inactive) in [7]; 1.5 µM (inactive) in [8]; 2.15 µM (inactive) in experiment [9]; 1.48 µM (inactive) in experiment [10]; 3.32 µM (inactive) in experiment [11]; 8.57 µM (inactive) in experiment [12]. Also, the GI50 in experiment [13] is 3.55 µM (inactive); in experiment [14], 1.48 µM (inactive); in experiment [15] it was 1.15 µM (inactive); in experiment [16], 2.71 µM (inactive).

`CC(=O)NCCC1CN(C(=O)/C=C/I)c2ccccc21` (centres undefined): the GI50 was 1.42 µM (inactive) in experiment [1]; 2.9 µM (inactive) in experiment [2]; 2.95 µM (inactive) in experiment [3]; 15.5 µM (inactive) in [4]; 14.5 µM (inactive) in [5]; 1.96 µM (inactive) in experiment [6]. The GI50 is 7.48 µM (inactive) in experiment [7]; 2.1 µM (inactive) in experiment [8]; 1.24 µM (inactive) in [9]; 4.01 µM (inactive) in [10]; 8.81 µM (inactive) in experiment [11]; 9.08 µM (inactive) in experiment [12]. Also, the GI50 was 3.79 µM (inactive) in [13], 15.7 µM (inactive) in experiment [14], 7.57 µM (inactive) in experiment [15] and 8 µM (inactive) in experiment [16].

In the case of `C/C(Nc1ccc(Cl)cc1Cl)=C1/CCOC1=O`, the GI50 is 56.4 µM (inactive) in experiment [1]; > 100 µM (inactive) in experiment [2]; 25.3 µM (inactive) in experiment [3]; 26.6 µM (inactive) in experiment [4]; > 100 µM (inactive) in experiment [5]; > 100 µM (inactive) in experiment [6]. The GI50 in [7] is > 100 µM (inactive); in experiment [8] it was > 100 µM (inactive); in experiment [9] it was > 100 µM (inactive); in experiment [10], > 100 µM (inactive); in experiment [11], > 100 µM (inactive); in experiment [12], 30.8 µM (inactive). Besides, the GI50 was 87.3 µM (inactive) in [13], > 100 µM (inactive) in [14], > 100 µM (inactive) in [15] and 25.7 µM (inactive) in [16].

Regarding `O=C1NC(=S)NC(=O)C1=Cc1cccc2cc3ccccc3cc12`, the GI50 in experiment [1] was 1.89 µM (inactive); in experiment [2], 1.44 µM (inactive); in experiment [3], 0.378 µM (active); in experiment [4] it was 2.46 µM (inactive); in [5], 2.03 µM (inactive); in [6] it was 2.28 µM (inactive). Further, the GI50 was 1.78 µM (inactive) in [7]; 2.58 µM (inactive) in experiment [8]; 1.98 µM (inactive) in [9]; 1.95 µM (inactive) in experiment [10]; 1.74 µM (inactive) in [11]; 2.06 µM (inactive) in experiment [12]. For the same molecule, the GI50 is 2.12 µM (inactive) in [13], 1.47 µM (inactive) in experiment [14], 2.07 µM (inactive) in [15] and 1.58 µM (inactive) in experiment [16].

Regarding `Cn1c(=O)nc2n(CCO)ccnc-2c1=O`, the GI50 in experiment [1], in experiment [2], in experiment [3], in [4], in experiment [5] and in [6] was > 100 µM (inactive) throughout. For the same molecule, the GI50 in experiment [7], in [8], in [9], in experiment [10], in experiment [11] and in [12] was > 100 µM (inactive) throughout. Also, the GI50 in experiment [13], in experiment [14], in [15] and in [16] was > 100 µM (inactive) each time.

`CCN(CC)C(=O)Cn1c(C)cc2ccccc21`: the GI50 in experiment [1], in experiment [2], in experiment [3], in experiment [4], in [5] and in [6] was > 100 µM (inactive) each time. For the same molecule, the GI50 in experiment [7], in experiment [8], in [9], in [10], in [11] and in experiment [12] was > 100 µM (inactive) throughout. The GI50 in experiment [13], in experiment [14], in experiment [15] and in experiment [16] was > 100 µM (inactive) throughout.

For `CCC1CC(C)C(O)/C=C/C=C/CC(C)OC(=O)CC(O)C(OC)C1OC1OC(C)CC(O)(C(C)=O)C1O` (centres undefined), the GI50 is 60.8 µM (inactive) in experiment [1]; 14.1 µM (inactive) in [2]; 46.5 µM (inactive) in experiment [3]; > 100 µM (inactive) in [4]; 47.6 µM (inactive) in [5]; 8.47 µM (inactive) in experiment [6]. Besides, the GI50 in experiment [7] was 37.9 µM (inactive); in experiment [8], > 100 µM (inactive); in experiment [9], 35.2 µM (inactive); in experiment [10], > 100 µM (inactive); in [11] it was 66.1 µM (inactive); in experiment [12], 83.6 µM (inactive). Also, the GI50 in experiment [13] was 21.7 µM (inactive); in [14], 96.6 µM (inactive); in [15] it was 69 µM (inactive); in experiment [16] it was 78.9 µM (inactive).

On to `CCOC(=O)C1=C(C(=O)OCC)SC2(S1)C(C(=O)OCC)=C(C(=O)OCC)Sc1c2ssc1=O`, for which the GI50 was 1.73 µM (inactive) in experiment [1]; < 0.01 µM (active) in experiment [2]; 0.16 µM (active) in [3]; 15 µM (inactive) in experiment [4]; 22.1 µM (inactive) in experiment [5]; 1.27 µM (inactive) in experiment [6]. Also, the GI50 in experiment [7] is 1.6 µM (inactive); in experiment [8], 0.361 µM (active); in experiment [9], 4.52 µM (inactive); in experiment [10], 0.815 µM (active); in experiment [11], 1.44 µM (inactive); in [12], 1.97 µM (inactive). Moreover, the GI50 in experiment [13] was 0.226 µM (active); in experiment [14], 0.857 µM (active); in experiment [15], 2.03 µM (inactive); in [16] it was 0.845 µM (active).

By GI50 is commonly meant the concentration giving 50% growth inhibition.

(Values after ChEMBL document CHEMBL1201862, “PubChem BioAssay data set” (2004).)
